In patent publication US4656258A, “Macrocin derivatives” (Eli Lilly and Company, priority 1985, dated 1987):
Values after ≈ are worked out from the molar mass of the structure shown.

What was measured:
[1] = test system: Streptococcus pneumoniae Group D 9960; assay: agar-dilution MIC; type: cell-based; details: GROUPD9960
Protocol: (§1) The MIC's in Table I were determined by standard agar-dilution assays. The MIC's in Table II were obtained using a conventional broth-dilution microtiter test.

[2] = test system: Staphylococcus epidermidis EPI2; assay: agar-dilution MIC; type: cell-based
Protocol: as §1

[3] = test system: Streptococcus pyogenes C203; assay: agar-dilution MIC; type: cell-based
Protocol: as §1

[4] = test system: Staphylococcus aureus S13E; assay: agar-dilution MIC; type: cell-based
Protocol: as §1

[5] = test system: Haemophilus influenzae 76; assay: agar-dilution MIC; type: cell-based; details: Haemophilus influenzae 76, ampicillin-resistant strain
Protocol: as §1

[6] = test system: Staphylococcus epidermidis EPI1; assay: agar-dilution MIC; type: cell-based
Protocol: as §1

[7] = test system: Staphylococcus aureus X400; assay: agar-dilution MIC; type: cell-based; details: Staphylococcus aureus X400, methicillin-resistant strain
Protocol: as §1

[8] = test system: Streptococcus pneumoniae Park I; assay: agar-dilution MIC; type: cell-based
Protocol: as §1

[9] = test system: Staphylococcus aureus V41; assay: agar-dilution MIC; type: cell-based; details: Staphylococcus aureus V41, penicillin-resistant strain
Protocol: as §1

[10] = test system: Klebsiella pneumoniae X26; assay: agar-dilution MIC; type: cell-based
Protocol: as §1

[11] = test system: Streptococcus pneumoniae Group D X66; assay: agar-dilution MIC; type: cell-based
Protocol: as §1

[12] = test system: Haemophilus influenzae C.L.; assay: agar-dilution MIC; type: cell-based; details: ampicillin-sensitive strain
Protocol: as §1

Eschericia coli TEM = assay: agar-dilution MIC; type: cell-based
Protocol: as §1

[13] = test system: Staphylococcus aureus X1.1; assay: agar-dilution MIC; type: cell-based
Protocol: as §1

Mycoplasma gallisepticum = assay: antimycoplasmal activity in experimentally infected chicks; type: in vivo; details: gavage, 0.5 g/gal × 5, 21 days after infection; for Number with Antibodies / Number Tested: antibodies to M. gallisepticum; for Number with Antibodies / Number Tested / Number with Air-Sac Lesions / Number Treated: infected control 10/10, uninfected control 0/10; for Mortality: infected control 2/7
Protocol: In these tests infections were induced in chicks by injecting 0.2 ml of a broth culture of M. gallisepticum into the abdominal air sac of one- to three-day-old chicks. The compounds were administered by gavage at a dose equivalent to 0.5 g/gal two times on the day of infection, two times on the day following infection and one time on the third day. Twenty-one days after infection the chicks were weighed, a blood sample was taken, and the chicks were sacrificed. The presence or absence of air-sac lesions was recorded.

Staphylococcus aureus = assay: broth-dilution microtiter MIC; type: cell-based
Protocol: as §1

Streptococcus sp. 80 = assay: broth-dilution microtiter MIC; type: cell-based
Protocol: as §1

[14] = test system: Pasteurella multocida 60A; assay: broth-dilution microtiter MIC; type: cell-based; details: avian isolate
Protocol: as §1

[15] = test system: Mycoplasma hyopneumonia S-5972; assay: broth-dilution microtiter MIC; type: cell-based; details: S5972
Protocol: as §1

[16] = test system: Pasteurella multocida 17E; assay: broth-dilution microtiter MIC; type: cell-based; details: bovine isolate
Protocol: as §1

[17] = macrocin vs tylosin, lactenocin vs desmycosin; cited from earlier work

SMILES | MIC [1] [µg/mL] | MIC [2] [µg/mL] | MIC [3] [µg/mL] | MIC [4] [µg/mL] | MIC [5] [µg/mL] | MIC [6] [µg/mL] | MIC [7] [µg/mL] | MIC [8] [µg/mL] | MIC [9] [µg/mL] | MIC [10] [µg/mL] | MIC [11] [µg/mL] | MIC [12] [µg/mL] | MIC (Eschericia coli TEM) [µg/mL] | MIC [13] [µg/mL] | Number with Antibodies / Number Tested (Mycoplasma gallisepticum) | Mortality (Mycoplasma gallisepticum) | MIC (Staphylococcus aureus) [µg/mL] | MIC (Streptococcus sp. 80) [µg/mL] | MIC [14] [µg/mL] | MIC [16] [µg/mL] | other results
CCCC(=O)OC1C(C)OC(OC2C(C)OC(OC3C(CC=O)CC(C)C(=O)C=CC(C)=CC(COC4OC(C)C(O)C(O)C4OC)C(CC)OC(=O)CC(OC(C)=O)C3C)C(O)C2N(C)C)CC1(C)O (stereo not shown) [3-Acetyl-4"-(n-Butyryl)-macrocin, 3-O-Acetyl-4"-O-(n-Butyryl)macrocin] | 2 (≈ 1.97 µM) | 2 (≈ 1.97 µM) | 0.5 (≈ 0.493 µM) | 2 (≈ 1.97 µM) | 32 (≈ 31.6 µM) | 1 (≈ 0.986 µM) | 2 (≈ 1.97 µM) | 0.25 (≈ 0.246 µM) | 1 (≈ 0.986 µM) | 64 (≈ 63.1 µM) | 2 (≈ 1.97 µM) | 32 (≈ 31.6 µM) | > 128 | 1 (≈ 0.986 µM) | 7/9 | 1/7 | 3.12 (≈ 3.08 µM) | 0.39 (≈ 0.385 µM) | 50 (≈ 49.3 µM) | 50 (≈ 49.3 µM) | Number with Air-Sac Lesions / Number Treated (Mycoplasma gallisepticum): 7/10; MIC [15]: 0.048 µg/mL (≈ 0.0473 µM)
CCC1OC(=O)CC(OC(C)=O)C(C)C(OC2OC(C)C(OC3CC(C)(O)C(OC(=O)CC(C)C)C(C)O3)C(N(C)C)C2O)C(CC=O)CC(C)C(=O)C=CC(C)=CC1COC1OC(C)C(O)C(O)C1OC (stereo not shown) [3-Acetyl-4"-Isovaleryl-macrocin, 3-O-acetyl-4"-O-isovalerylmacrocin] | 2 (≈ 1.95 µM) | 2 (≈ 1.95 µM) | 0.25 (≈ 0.243 µM) | 1 (≈ 0.973 µM) | 16 (≈ 15.6 µM) | 0.5 (≈ 0.486 µM) | 2 (≈ 1.95 µM) | 0.5 (≈ 0.486 µM) | 1 (≈ 0.973 µM) | 64 (≈ 62.2 µM) | 2 (≈ 1.95 µM) | 32 (≈ 31.1 µM) | 128 (≈ 124 µM) | 0.5 (≈ 0.486 µM) | 10/10 | 0/10 | 1.56 (≈ 1.52 µM) | 0.39 (≈ 0.379 µM) | > 50 | 50 (≈ 48.6 µM) | Number with Air-Sac Lesions / Number Treated (Mycoplasma gallisepticum): 1/10; MIC [15]: 0.048 µg/mL (≈ 0.0467 µM)
CCC1OC(=O)CC(OC(C)=O)C(C)C(OC2OC(C)C(O)C(N(C)C)C2O)C(CC=O)CC(C)C(=O)C=CC(C)=CC1COC1OC(C)C(O)C(O)C1OC (stereo not shown) [3-Acetyl-lactenocin, 3-O-Acetyllactenocin] | 8 (≈ 10 µM) | 4 (≈ 5 µM) | 0.25 (≈ 0.313 µM) | 2 (≈ 2.5 µM) | 8 (≈ 10 µM) | 1 (≈ 1.25 µM) | 4 (≈ 5 µM) | 0.5 (≈ 0.625 µM) | 2 (≈ 2.5 µM) | 32 (≈ 40 µM) | 8 (≈ 10 µM) | 16 (≈ 20 µM) | 64 (≈ 80 µM) | 1 (≈ 1.25 µM) | – | – | 3.12 (≈ 3.9 µM) | 1.56 (≈ 1.95 µM) | 25 (≈ 31.3 µM) | 12.5 (≈ 15.6 µM) | –
CCC1OC(=O)CC(OC(C)=O)C(C)C(OC2OC(C)C(OC3CC(C)(O)C(O)C(C)O3)C(N(C)C)C2O)C(CC=O)CC(C)C(=O)C=CC(C)=CC1COC1OC(C)C(O)C(O)C1OC (stereo not shown) [3-Acetyl-macrocin, 3-O-Acetylmacrocin] | 2 (≈ 2.12 µM) | 2 (≈ 2.12 µM) | 0.25 (≈ 0.265 µM) | 1 (≈ 1.06 µM) | 16 (≈ 16.9 µM) | 0.5 (≈ 0.53 µM) | 2 (≈ 2.12 µM) | 0.5 (≈ 0.53 µM) | 1 (≈ 1.06 µM) | 64 (≈ 67.8 µM) | 2 (≈ 2.12 µM) | 32 (≈ 33.9 µM) | 64 (≈ 67.8 µM) | 0.5 (≈ 0.53 µM) | – | – | 1.56 (≈ 1.65 µM) | 1.56 (≈ 1.65 µM) | > 50 | 50 (≈ 53 µM) | –
CCC1OC(=O)CC(O)C(C)C(OC2OC(C)C(O)C(N(C)C)C2O)C(CC=O)CC(C)C(=O)C=CC(C)=CC1COC1OC(C)C(O)C(O)C1OC (stereo not shown) [lactenocin] | – | – | – | – | – | – | – | – | – | – | – | – | – | – | – | – | – | – | – | – | antibiotic activity relative to tylosin / desmycosin [17]: less than that of tylosin and desmycosin, respectively
CCC1OC(=O)CC(O)C(C)C(OC2OC(C)C(OC3CC(C)(O)C(O)C(C)O3)C(N(C)C)C2O)C(CC=O)CC(C)C(=O)C=CC(C)=CC1COC1OC(C)C(O)C(O)C1OC (stereo not shown) [macrocin] | – | – | – | – | – | – | – | – | – | – | – | – | – | – | – | – | – | – | – | – | antibiotic activity relative to tylosin / desmycosin [17]: less than that of tylosin
